Assay results: patent US6686385B2, “Anhydro sugar derivatives of indolocarbazoles” (Bristol-Myers Squibb Company, priority 2000, dated 2004)
pEC50, pIC50: −log10 of the molar value.

Legend:
human topoisomerase I = molecular target: T1, human topoisomerase I (Homo sapiens, UniProt P11387); assay: Topoisomerase I activity (in vitro): compound-induced, topoisomerase I-mediated single strand breaks in PM2 DNA; format: biochemical; conditions: purified human topoisomerase I (Topogen), 30 minutes at 37° C., median effective concentration for inducing single strand breaks, read-out: TOPO I EC50
T1 construct: purchased Topogen
T1 sequence (P11387 1-765): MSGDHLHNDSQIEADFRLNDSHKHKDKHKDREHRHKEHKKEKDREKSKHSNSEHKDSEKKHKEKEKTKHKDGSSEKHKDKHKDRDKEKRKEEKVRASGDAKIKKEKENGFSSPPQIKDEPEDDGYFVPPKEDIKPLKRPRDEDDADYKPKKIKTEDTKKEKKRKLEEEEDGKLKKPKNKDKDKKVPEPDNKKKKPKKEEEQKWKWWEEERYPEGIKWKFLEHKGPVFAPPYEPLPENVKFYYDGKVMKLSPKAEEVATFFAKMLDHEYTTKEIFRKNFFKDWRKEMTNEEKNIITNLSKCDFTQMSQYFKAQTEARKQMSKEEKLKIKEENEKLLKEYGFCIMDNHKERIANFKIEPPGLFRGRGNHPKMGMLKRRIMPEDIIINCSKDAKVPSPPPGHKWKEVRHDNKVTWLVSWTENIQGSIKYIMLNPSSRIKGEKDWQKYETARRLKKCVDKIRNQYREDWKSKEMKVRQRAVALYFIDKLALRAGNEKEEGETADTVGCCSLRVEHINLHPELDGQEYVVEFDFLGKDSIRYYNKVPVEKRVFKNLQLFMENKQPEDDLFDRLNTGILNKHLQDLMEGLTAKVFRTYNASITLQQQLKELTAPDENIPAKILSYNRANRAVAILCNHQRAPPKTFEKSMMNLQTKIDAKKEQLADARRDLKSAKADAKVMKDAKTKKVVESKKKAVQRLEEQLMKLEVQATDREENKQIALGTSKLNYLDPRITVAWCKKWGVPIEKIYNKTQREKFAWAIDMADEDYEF
Procedure: Topoisomerase I activity was measured as described below: The procedure for assaying compound-induced, topoisomerase I-mediated single strand breaks in DNA was essentially that described by Hsiang, et al., (J. Biol. Chem. 1985, 260,14873-14878). Samples dissolved in 100% DMSO as either […] or 10 mg/ml solutions, unless otherwise stated, were diluted in Tris-EDTA buffer. Marine bacteriophage PM2 DNA (Boehringer Mannheim) was also diluted in Tris-EDTA buffer to a concentration of 0.02 μg/μl. Different dilutions of compound being evaluated were mixed with diluted DNA and this mixture was added to 1000 unit (one unit of enzyme activity is defined as the amount capable of relaxing 100 ng of supercoiled DNA in approximately 30 minutes at 37° C.) aliquots of purified human topoisomerase I (Topogen) in 2×reaction buffer to start the reaction. The compound—DNA—enzyme mixture was incubated for 30 minutes at 37° C. before stopping the reaction with warm stop buffer containing sodium dodecyl sulfate and proteinase K (Sigma). These mixtures were allowed to incubate at 37° C. for another 10 minutes, at which time the mixtures were removed from the waterbath and extracted with a 24:1 mixture of chloroform/isoamyl alcohol. Following centrifugation, aliquots of the aqueous phases were placed in wells of a 0.9% agarose (SeaKem) gel in Tris-borate buffer containing 0.5 μg/ml of ethidium bromide and subjected to electrophbresis for 15 hours to separate the different topological isomers and nicked and broken DNAs. After destaining the gel in water, the ethidium bromide stained DNA reaction products were visualized by exposing the gel to UV irradiation. Negatives of photographs of the irradiated gels were scanned with a densitometer and areas under the peaks were calculated in order to obtain percent-single strand DNA break formation for each sample. A median effective concentration(EC50) was obtained for each compound by interpolation between points of the resulting dose-effect curve which defines the potency of the compound for its effect in inducing topoisomerase I-mediated single strand breaks in DNA.

murine P388 cell line = assay: In vitro cell-based cytotoxicity / proliferation inhibition (XTT assay); conditions: Mus musculus, 72 hrs incubation, absorbance at 450 nm
Procedure: The proliferation inhibition activity against murine P388 cell line was measured as follow. […] The cells were incubated at 37° C. for 72 hrs at which time the tetrazolium dye, XTT, containing phenazine methosulfate was added. A dehydrogenase enzyme in live cells reduoes the XTT to a form that absorbs light at 450 nm which can be quantitated spectrophotometrically. The greater the absorbance the greater the number of live cells. The results are expressed as an IC50 which is the drug concentration required to inhibit cell proliferation (i.e. absorbance at 450 nm) to 50% of that of untreated control cells.

Row | pEC50 (human topoisomerase I) | melting point | Structure (SMILES) | pIC50 (murine P388 cell line)
1 | 8.00 |  | O=C1c2c(c3c4cc(F)ccc4n(C4O[C@H]5[C@H](OC[C@H]5O)[C@H]4O)c3c3[nH]c4ccc(F)cc4c23)C(=O)N1O (stereo partly drawn) [Example 6, 3,9-Difluoro-12,13-dihydro-13-[(2,6-dihydroxy)-(4,8-dioxa)-bicyclo[3.3.0]oct-3-yl]-5H-indolo[2,3-a]pyrrolo[3,4-c]carbazole-5,7(6-N-hydroxyl)-dione] | 7.85
2 | 7.74 |  | O=C1NC(=O)c2c1c1c3cc(F)ccc3[nH]c1c1c2c2cc(F)ccc2n1C1O[C@H](CO)[C@H]2O[C@H]2[C@H]1O (stereo partly drawn) [Example 8, 3,9-Difluoro-12,13-dihydro-13-[(3,4-anhydro)-β-D-glucopyranosyl]-5H-indolo[2,3-a]pyrrolo[3,4-c]carbazole-5,7(6H)-dione] | 8.28
3 | 6.74 |  | O=C1NC(=O)c2c1c1c3cc(F)ccc3[nH]c1c1c2c2cc(F)ccc2n1[C@@H]1O[C@@H]2CO[C@H]([C@H]1O)[C@H]2O [Example 18, 3,9-Difluoro-12,13-dihydro-13-[(3,6-anhydro)-β-D-galactopyranosyl]-5H-indolo[2,3-a]pyrrolo[3,4-c]carbazole-5,7(6H)-dione] | 6.91
4 | 6.24 |  | O=C1NC(=O)c2c1c1c3cc(F)ccc3[nH]c1c1c2c2cc(F)ccc2n1C1O[C@H](CF)[C@@H](F)[C@H]2O[C@@H]12 (stereo partly drawn) [Example 7, 3,9-Difluoro-12,13-dihydro-13-[(2,3-anhydro)-(4,6-difluoro)-β-D-glucopyranosyl]-5H-indolo[2,3-a]pyrrolo[3,4-c]carbazole-5,7(6H)-dione] | 6.31
5 | 6.24 | > 300 °C | O=C1NC(=O)c2c1c1c3ccc(F)cc3[nH]c1c1c2c2ccc(F)cc2n1[C@@H]1O[C@H](CO)[C@H]2O[C@H]2[C@H]1O [Example 12] | 6.97
6 | 7.85 |  | O=C1c2c(c3c4cc(F)ccc4n([C@@H]4OC5COC([C@@H]5O)[C@H]4O)c3c3[nH]c4ccc(F)cc4c23)C(=O)N1O (stereo partly drawn) [Example 3, 3,9-Difluoro-12,13-dihydro-13-[(3,6-anhydro)-β-D-glucopyranosyl]-5H-indolo[2,3-a]pyrrolo[3,4-c]carbazole-5,7(6-N-hydroxyl)-dione] | 7.84
7 | 6.96 | > 305 °C | O=C1NC(=O)c2c1c1c3cc(F)ccc3sc1c1c2c2cc(F)ccc2n1[C@H]1O[C@@H]2CO[C@H]([C@H]1O)[C@@H]2O [Example 13, 3,9-Difluoro-13-(3,6-anhydro-α-D-glucopyranosyl)-5H,13H-benzo[β]thienyl[2,3-a]pyrrolo[3,4-c]carbazole-5,7(6H)-dione] | 7.63
8 | 6.44 |  | O=C1NC(=O)c2c1c1c3cc(F)ccc3[nH]c1c1c2c2cc(F)ccc2n1[C@H]1OC2COC([C@@H]2O)[C@H]1O (stereo partly drawn) [Example 2, 3,9-Difluoro-12,13-dihydro-13-[(3,6-anhydro)-α-D-glucopyranosyl]-5H-indolo[2,3-a]pyrrolo[3,4-c]carbazole-5,7(6H)-dione] | 7.41
9 | 5.26 | > 300 °C | O=C1NC(=O)c2c1c1c3ccc(F)cc3[nH]c1c1c2c2ccc(F)cc2n1[C@@H]1O[C@@H]2CO[C@H]([C@H]1O)[C@@H]2O [Example 14, 12-(3,6-Anhydro-β-D-glucopyranosyl)-2,10-difluoro-12,13-dihydro-5H-indolo[2,3-a]pyrrolo[3,4-c]carbazole-5,7(6H)-dione] | 5.21
10 | 8.00 |  | NN1C(=O)c2c(c3c4cc(F)ccc4n([C@@H]4OC5COC([C@@H]5O)[C@H]4O)c3c3[nH]c4ccc(F)cc4c23)C1=O (stereo partly drawn) [Example 4, 3,9-Difluoro-12,13-dihydro-13-[(3,6-anhydro)-β-D-glucopyranosyl]-5H-indolo[2,3-a]pyrrolo[3,4-c]carbazole-5,7(6-N-amino)-dione] | > 8.52
11 | 6.89 |  | O=C1NC(=O)c2c1c1c3cc(F)ccc3[nH]c1c1c2c2cc(F)ccc2n1[C@@H]1OC2COC(C2)C1O (stereo partly drawn) [Example 11, 3,9-Difluoro-12,13-dihydro-13-[(3,6-anhydro-4-deoxy)-β-D-glucopyranosyl]-5H-indolo[2,3-a]pyrrolo[3,4-c]carbazole-5,7(6H)-dione] | 7.15
12 | 4.82 |  | O=C1NC(=O)c2c1c1c3cc(F)c(F)cc3[nH]c1c1c2c2cc(F)c(F)cc2n1[C@@H]1O[C@@H]2CO[C@H]([C@H]1O)C2(F)F [Example 17, 2,3,9,10-Tetrafluoro-12-(3,6-anhydro-4-deoxy-4,4-difluoro-β-D-glucopyranosyl)-6,7,12,13-tetrahydro(5H)indolo[2,3-a]pyrrolo[3,4-c]carbazole-5,7-dione] | 6.62
13 | 7.07 |  | O=C1NC(=O)c2c1c1c3cc(F)ccc3[nH]c1c1c2c2cc(F)ccc2n1[C@@H]1OC2COC(C2O)C1O (stereo partly drawn) [Example 1, 3,9-Difluoro-12,13-dihydro-13-[(3,6-anhydro)-β-D-glucopyranosyl]-5H-indolo[2,3-a]pyrrolo[3,4-c]carbazole-5,7(6H)-dione] | 7.03
14 |  |  | O=C1NC(=O)c2c1c1c3cc(F)c(F)cc3[nH]c1c1c2c2cc(F)c(F)cc2n1[C@@H]1O[C@@H]2CO[C@@H](C2)[C@H]1O [Example 16, 2,3,9,10-Tetrafluoro-12-(3,6-anhydro-4-deoxy-β-D-glucopyranosyl)-6,7,12,13-tetrahydro(5H)indolo[2,3-a]pyrrolo[3,4-c]carbazole-5,7-dione] | 6.51
